Assay [1] relates to acetylcholine release in dorsal hippocampus. The assay is described as follows: Acetylcholine release in rat dorsal hippocampus, microdialysis. It counts as in vivo, Sprague Dawley rats. The settings on record: rat dorsal hippocampus dialysate. From the text: Male Sprague Dawley rats were anesthetized with halothane and secured in a stereotaxic frame to allow implantation of a microdialysis guide cannula above the dorsal hippocampus (coordinatesXXX; Paxinos & Watson 1986). The guide cannula was secured using dental acrylic and two small skull screws. Following surgery, animals were individually housed in microdialysis cages with free access to food and water. The following day a microdialysis probe was inserted via the guide cannula into the hippocampus. Probes were perfused with artificial cerebrospinal fluid at a flow rate of 0.5 μl/min. Dialysates were collected every 40 min and were put on dry ice immediately after collection for subsequent analysis. A 3 h stabilization period was allowed following probe insertion after which time baseline samples were collected for 120 min. Rats were then dosed with Aricept (0.5 mg/kg i.p.) or vehicle (saline, 1 ml/kg i.p.). […] Following dosing, dialysis samples were collected for 200 min. At the end of the experiment, animals were euthanized and probe placement was verified histologically. Data from animals with incorrect probe placement were discarded. Dialysates were analyzed for ACh content using LC/MS/MS.

Assay [2] relates to recognition memory. It counts as in vivo. The settings on record: 48-hour interval. From the text: In this evaluation, donepezil (Aricept) is used as the acetylcholinesterase inhibitor component and 3-(1-naphthylsulfonyl)-5-piperazin-1-yl-1H-indazole (Test Compound A) is used as the 5-HT6 component. Novel object recognition is a single trial non-aversive learning paradigm that utilizes the rodent's natural tendency to explore an unfamiliar object more than a familiar one. The learning phase of the paradigm consists of recording the amount of time a rat explores two identical objects it has never seen before during a 5-minute period. Following a 48-hour interval, during which the animal is returned to its homecage, the animal is placed back into the same environment now containing one of the original objects (familiar) and one never experienced before (novel). Recognition memory is reflected as an increase in time spent exploring the novel object relative to that spent exploring the familiar one. The amount of time each animal spends exploring the two objects during the memory trial is analyzed using a repeated-measures ANOVA. […] All treatments were administered prior to the first trial either orally (Test Compound A) or i.p. (Aricept).

In assay [3] the target is T1, human 5-HT6 receptor stabily transfected into HELA cells (Homo sapiens, UniProt P50406).
T1 construct: expressed in transfected cells; host or cells: HELA cells, stably transfected
T1 sequence (P50406 whole entry): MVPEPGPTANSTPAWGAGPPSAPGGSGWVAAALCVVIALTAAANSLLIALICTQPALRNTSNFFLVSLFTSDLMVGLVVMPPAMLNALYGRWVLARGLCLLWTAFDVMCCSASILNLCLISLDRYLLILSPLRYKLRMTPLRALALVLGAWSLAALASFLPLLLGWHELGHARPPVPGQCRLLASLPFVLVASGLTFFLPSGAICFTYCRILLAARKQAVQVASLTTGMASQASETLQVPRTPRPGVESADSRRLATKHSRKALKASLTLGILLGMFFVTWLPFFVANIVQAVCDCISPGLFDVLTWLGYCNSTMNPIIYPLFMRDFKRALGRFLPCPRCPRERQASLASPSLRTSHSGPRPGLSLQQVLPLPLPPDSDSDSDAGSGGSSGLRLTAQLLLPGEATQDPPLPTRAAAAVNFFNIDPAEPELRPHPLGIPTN
The assay can be described thus: 5-HT6 antagonist activity using cAMP accumulation. It counts as cell-based. The settings on record: decrease of cAMP relative to serotonin (100 nM); 100% Imax indicates 0% intrinsic activity. The protocol:
Intracellular cAMP levels are measured using 96-well plates containing the human 5-HT6 receptor stabily transfected into HELA cells. Upon initiation of the assay, the media from cell maintenance is aspirated and cells are preincubated at 37° C. for 15 mins. in KREBS buffer. Following this primary incubation, the buffer is aspirated and an additional incubation is performed at 37° C. for 5 mins. in KREBS buffer containing 500 uM IBMX (3-isobutyl-1-methylxanthine). Subsequently cells are incubated with test compound concentrations ranging from 10^-5 to 10^-10M for 10 minutes at 37° C. Serotonin (100 nM) is added to the treated cells and incubated for an additional 10 minutes at 37° C. The assay is terminated by the addition of 0.5M perchloric acid. Intracellular CAMP levels are determined by radioimmunoassay through the cAMP SPA screening kit. Data are analyzed graphically with GraphPad Prism (GraphPad Software, San Diego, Calif.). […] The value is recorded as Imax (%) and shown on Table I. (100% Imax indicates 0% intrinsic activity.)
On the technique in general: Changes in cAMP serve as a functional read-out for many G protein-coupled receptors.

Assay [4] has as its target T2, human cloned 5-HT6 receptors (Homo sapiens, UniProt P50406).
T2 construct: expressed in transfected cells; host or cells: Hela cells (membrane preparation)
The assay is described as follows: 5-HT6 binding affinity, [3H]-LSD displacement on membranes of Hela cells. As for the experimental part:
The affinity of test compounds for the serotonin 5-HT6 receptor is evaluated in the following manner. Cultured Hela cells expressing human cloned 5-HT6 receptors are harvested and centrifuged at low speed (1,000×g) for 10.0 min to remove the culture media. The harvested cells are suspended in half volume of fresh physiological phosphate buffered saline solution and recentrifuged at the same speed. This operation is repeated. The collected cells are then homogenized in ten volumes of 50 mM Tris.HCl (pH 7.4) and 0.5 mM EDTA. The homogenate is centrifuged at 40,000×g for 30.0 min and the precipitate is collected. The obtained pellet is resuspended in 10 volumes of Tris.HCl buffer and recentrifuged at the same speed. The final pellet is suspended in a small volume of Tris.HCl buffer and the tissue protein content is determined in aliquots of 10-25 μl volumes. […] The volume of the suspended cell membranes is adjusted to give a tissue protein concentration of 1.0 mg/ml of suspension. The prepared membrane suspension (10 times concentrated) is aliquoted in 1.0 ml volumes and stored at −70° C. until used in subsequent binding experiments.
Binding experiments are performed in a 96 well microtiter plate format, in a total volume of 200 μl. […] The test compounds are added in 20.0 μl volume.
The bound complex caught on the filter disk is allowed to air dry and the radioactivity is measured in a Packard TopCount® equipped with six photomultiplier detectors, after the addition of 40.0 μl Microscint®-20 scintillant to each shallow well.
Binding in the presence of varying concentrations of test compound is expressed as a percentage of specific binding in the absence of test compound. The results are plotted as log % bound versus log concentration of test compound. […] A linear regression line of data points is plotted, from which the IC50 value is determined and the Ki value is determined based upon the following equation: […]
where L is the concentration of the radioactive ligand used and KD is the dissociation constant of the ligand for the receptor, both expressed in nM.

The mark [5] stands for this setting: 5-HT6 antagonist 1 mg/kg po alone.

“Also recorded” adds a separate entry of the source. Read-outs that look alike come from different tables or passages of the source.

T2 sequence (P50406 whole entry): as above

Turning to `COc1cc2c(cc1OC)C(=O)C(CC1CCN(Cc3ccccc3)CC1)C2` (centres unmarked) [Aricept, donepezil], in assay [1] (Aricept 0.5 mg/kg i.p. alone), the “increase in acetylcholine concentration (change from baseline)” value is on record as 50%. Also, the “retention for the familiar objects (novel object recognition)” value (“retention for the familiar objects” below) in assay [2] (Aricept 0.5 mg/kg ip alone) was “neither Aricept (0.5 mg/kg, ip) nor Test Compound A (1 mg/kg, po) alone enhanced retention; also recorded: produced no enhancement of recognition memory; also recorded: neither Aricept (0.5 mg/kg, ip) alone nor Test Compound B (1 mg/kg, po) alone enhanced retention”; in assay [2] (Aricept alone), “enhanced retention for the familiar objects”.
`COc1ccc2c3c1O[C@H]1C[C@@H](O)C=C[C@@]31CCN(C)C2` [Razadyne, galanthamine]: the “retention for the familiar objects” value in assay [2] (Razadyne 0. alone) is “neither Razadyne (0.1 mg/kg, ip) alone nor Test Compound B (1 mg/kg, po) alone enhanced retention”.
Regarding `O=S(=O)(c1cccc2ccccc12)c1n[nH]c2ccc(N3CCNCC3)cc12` [Test Compound A, 3-(1-naphthylsulfonyl)-5-piperazin-1-yl-1H-indazole], the “% Imax” value in assay [3] was found to be 100%. Besides, the affinity in assay [4] corresponds to a Ki of 1.1 nM. Also, the “retention for the familiar objects” value in assay [2] (setting [5]) is on record as “neither Aricept (0.5 mg/kg, ip) nor Test Compound A (1 mg/kg, po) alone enhanced retention”; in assay [2] (5-HT6 antagonist 3 mg/kg po alone), “enhanced retention for the familiar objects”.
For `CN(C)CCCOc1ccc2[nH]nc(S(=O)(=O)c3cccc4ccccc34)c2c1` [Test Compound B, N,N-dimethyl-3-{[3-(1-naphthylsulfonyl)-1H-indazol-5-yl]oxy}propan-1-amine], in assay [1] (Test Compound B 1 mg/kg p.o. alone), the “effect on acetylcholine concentration (change from baseline)” value is “did not affect acetylcholine”. Besides, the “retention for the familiar objects” value in assay [2] (setting [5]) is reported as “neither Aricept (0.5 mg/kg, ip) alone nor Test Compound B (1 mg/kg, po) alone enhanced retention; also recorded: neither Razadyne (0.1 mg/kg, ip) alone nor Test Compound B (1 mg/kg, po) alone enhanced retention”.
As for `NCCOc1cccc2c(S(=O)(=O)c3cccc4ccccc34)n[nH]c12` [Test Compound C, (2-{[3-(1-naphthylsulfonyl)-1H-indazol-7-yl]oxy}ethyl)amine], in assay [3], the “% Imax” value amounted to 100%. Further, the Ki in assay [4] stood at 1.9 nM.
Turning to `O=S(=O)(c1ccccc1)n1ncc2c(N3CCNCC3)cccc21` [Test Compound D, 1-(phenylsulfonyl)-4-(1-piperazinyl)-1H-indazole], in assay [3], the “% Imax” value is on record as 100%. This compound also gave a Ki in assay [4] of 0.6 nM.

Broadly, the Ki is the dissociation constant of the complex between target and ligand, obtained from inhibition or displacement. The low end stands for higher affinity, the high end for lower affinity.

The record behind these values is patent US20070167431A1, “Method for the treatment of cognitive dysfunction” (Wyeth, priority 2006, published 2007).
